{"source": "patent US12359188B2", "about": "“Method for producing therapeutic exosomes from nanoelectroporation and other non-endocytic cell transfection” (Ohio State Innovation Foundation, priority 2017, dated 2025)", "tested_on": "NEP transfected MEF cells", "assay": "Effect of HSP70/HSP90 inhibitors on EV secretion from NEP transfected MEF cells (DLS goniometry)", "format": "cell-based, mouse", "conditions": "medium collected 24 h post-transfection", "method": "After NEP transfection, the cell culture was replaced with fresh medium containing HSP70 inhibitor (VER 155008, 50 μM), HSP90 inhibitor (NVP-HSP990, 1 μM), or their mixture. Medium was collected at 24 h post-transfection, and EV numbers were detected by dynamic light scattering (DLS) goniometry;\nDuring electroporation, Joule heating caused by the imposed electric field could tentatively increase the cell temperature to cause thermal shocking to the transfected cells. It is known that thermal shocking may increase cell secretion of EVs due to chaperone mediated autophage caused by the increase of heat shock proteins in cells (8-10). […] When HSP inhibitors were added in cell culture medium after electroporation, EV secretion could be suppressed. […] Here, the cell culture was replaced with fresh medium containing HSP70 inhibitor (VER 155008), HSP90 inhibitor (NVP-HSP990), or their mixture right after NEP transfection. Medium was collected at 24 h post-transfection and EV numbers were detected by dynamic light scattering (DLS) goniometry."}
{"smiles": "COc1cccc(-c2cc(F)ccc2[C@H]2Cc3nc(N)nc(C)c3C(=O)N2)n1", "note": "[NVP-HSP990]", "values": [{"measurement": "decrease of EV secretion", "setting": "HSP90 inhibitor 1 μM in fresh medium right after NEP transfection", "result": 40, "unit": "%"}]}
{"smiles": "N#Cc1ccc(COC[C@H]2O[C@@H](n3c(NCc4ccc(Cl)c(Cl)c4)nc4c(N)ncnc43)[C@H](O)[C@@H]2O)cc1", "note": "[VER 155008]", "values": [{"measurement": "decrease of EV secretion", "setting": "HSP70 inhibitor 50 μM in fresh medium right after NEP transfection", "result": 50, "unit": "%"}]}
